# Tests used:
# Type in all cases: cell-based
# [1] = test system: AKT1 (AKT serine/threonine kinase 1); assay: Gene expression experiment (real-time PCR) in SH-SY5Y cells: AKT1; details: for expression of AKT1: 24 h
# Procedure: (§1) SH-SY5Y cells were seeded in 100 mm-cell dishes (BD Biocoat) at concentrations of 3.7×10^5 cells/mL (10 mL/dish) and cultured for 24 h at 37° C. and 5% CO2. Culture medium used was F12/DMEM (Gibco) supplemented with 1% non-essential amino acids (Gibco), 15% FBS (Bio West), and 1% penicillin/streptomycin (Lonza). After 24 h, the culture medium was completely removed with an aspirator, 10 mL of culture medium Opti-MEM(Gibco) was added to each dish, and the cells were cultured for 24 h at 37° C. and 5% CO2. RNA was extracted from the culture cells and analyzed for the expression of genes described below by real-time PCR (designated as “Control” in FIGS. 2 to 8).
# (§2) RNA extraction was performed using ISOGEN Reagent (Nippon Gene Co., Ltd.) in accordance with the protocol recommended by Nippo n Gene Co., Ltd. (see URL: https://www.nippongene.com/siyaku/product/extraction/tds/tds_isogen-rna-dna-protein.pdf). Real-time PCR was performed according to the protocol recommended by Thermo Fisher Scientific using a reagent kit for TaqMan Real-Time PCR (Thermo Fisher Scientific) (see URL: https://assets.thermofisher.com/TFS-Assets/LSG/manuals/4304449_TaqManPCRMM_UG.pdf).
# (§3) 24 h after seeding 100 mm-cell dishes (BD Biocoat) with SH-SY5Y cells, the culture medium was completely removed with an aspirator, amyloid β protein (Beta-Amyloid 1-42, AnaSpec) was mixed with Opti-MEM (Gibco) so that the final concentration was 5 μM, 10 mL of the mixture was added to each dish, the cells were cultured for 24 h at 37° C. and 5% CO2, and RNA was extracted. Except for performing the procedure described above, gene expression was analyzed as described above (designated as “Aβ” in FIGS. 2 to 8).
# (§4) 24 h after seeding 100 mm-cell dishes (BD Biocoat) with SH-SY5Y cells, the culture medium was completely removed with an aspirator, Sample 1 was mixed with culture medium Opti-MEM(Gibco) so that the final concentration was 12.56 μM, 9,990 μL of the mixture was added to each dish and allowed to stand for 10 min, amyloid β protein (Beta-Amyloid 1-42, AnaSpec) was mixed with Opti-MEM (Gibco) so that the final concentration was […], 10 μL of the mixture was added to each well, the cells were cultured for 24 h at 37° C. and 5% CO2, and RNA was extracted. Except for performing the procedure described above, Gene expression was analyzed as described above (designated as “Aβ+M3,5G” in FIGS. 2 to 8).
# (§5) Except that Sample 2 was used instead of Sample 1, gene expression was analyzed as described above (designated as “Aβ+M” in FIGS. 2 to 8).
# (§6) Except that Sample 3 was used instead of Sample 1, gene expression was analyzed as described above (designated as “Aβ+M3G” in FIGS. 2 to 8).
# (§7) 24 h after seeding 100 mm-cell dishes (BD Biocoat) with SH-SY5Y cells, the culture medium was completely removed with an aspirator, 10 mL of culture medium Opti-MEM(Gibco) mixed with Sample 1 was added to each dish, the cells were cultured for 24 h at 37° C. and 5% CO2, and RNA was extracted. Except for performing the procedure described above, gene expression was analyzed as described above (designated as “M3,5G” in FIGS. 2 to 8).
# [2] = test system: MAPK14 (mitogen-activated protein kinase 14); assay: Gene expression experiment (real-time PCR) in SH-SY5Y cells: MAPK14; details: 24 h
# Procedure: as §1, §2, §3, §4, §5
# Except that Sample 3 was used instead of Sample 1, gene expression was analyzed as described above (designated as “Aβ+M3G” in FIGS. 2 to 8). […]
# [3] = test system: PI3KCA (phosphatidylinositol-4,5-bisphosphate 3-kinase catalyst subunit α); assay: Gene expression experiment (real-time PCR) in SH-SY5Y cells: PI3KCA; details: for expression of PI3KCA: 24 h
# Procedure: as §1, §2, §3, §4, §5, §6, §7
# [4] = 12.56 μM, amyloid β protein-treated cells, compared to “Aβ”
# [5] = 12.56 μM, amyloid β protein-treated cells, compared to “Control”
# [6] = Sample 1 alone, no amyloid β, compared to “Control”
# [7] = amyloid β protein-treated cells, 12.56 μM, ranked against malvidin and malvidin-3-glucoside
smiles,measurement,setting,value
"COc1cc(-c2[o+]c3cc(O)cc(OC4OC(CO)C(O)C(O)C4O)c3cc2OC2OC(CO)C(O)C(O)C2O)cc(OC)c1O (stereo not shown) [M3,5G, Malvidin-3,5-diglucoside chloride]",expression of AKT1,[1]; [4],significantly high
same,expression of AKT1,[1]; [5],significantly high
same,expression of AKT1,[1]; [6],significantly increased
same,activity in increasing the expression of AKT1,[1]; [7],highest activity
same,expression of MAPK14,[2]; [4],significantly high
same,expression of MAPK14,[2]; [6],significantly increased
same,expression of PI3KCA,[3]; [4],significantly high
same,expression of PI3KCA,[3]; [5],significantly high
same,expression of PI3KCA,[3]; [6],significantly increased
same,activity in increasing the expression of PI3KCA,[3]; [7],highest activity
